Columns and labels:
E. coli MG1655 [1] = test: Biomass production of E. coli MG1655 on crude or pure glycerol; type: cell-based; details: oxic conditions, unregulated pH, cultivation tubes
Experimental: E. coli was cultured in a defined minimal medium that was designed to contain low levels of phosphate, since phosphate is a known inhibitor of methyglyoxal synthase. Per liter, the medium contained: E. coli strains were routinely propagated in cultivation tubes (total volume 30 ml. Inoculum 5 ml) or glass bottles sealed with rubber-stoppers (total volume 12 ml, inoculum 10 ml) for creating semi-anoxic conditions. The term “cultivation under oxic conditions” implies cultivation in non-sealed containments with agitation. Semi-anoxic in that context means cultivation of strains without agitation in medium that was prepared under oxic conditions and in closed containments, e.g. bottles sealed with rubber-stoppers upon inoculation to avoid diffusing in of external oxygen. Cultivation times varied between 2 and 5 days, for oxic and semi-anoxic conditions, respectively. […] [table]

E. coli MG1655 [2] = test: Potential of impurities in crude glycerol to substitute for macro-elements of minimal medium (biomass production); type: cell-based; details: glycerol 10 g/l, oxic, unregulated pH
[3] = system: E. coli DH5alpha araB-knockout; test: Growth on glucose or glycerol as carbon source, control strain; type: cell-based; details: no plasmid, carbon source 10 g/l, 37° C., oxic, 5 days
Source text: (§1) Genes gldA from E. coli encoding […], dhaK from Citrobacter freundii encoding dihydroxyacetone kinase (dhaK) and fucO from E. coli encoding propanediol-oxidoreductase were cloned in plasmid pB2araJ to give plasmid pDP_gdf. Plasmid pDP_mgdf additionally contains methylglyoxal synthase from E. coli. According to known biochemical pathways, propanediol oxidoreductase is not relevant for this example. However, we tested plasmid pDP_gdf and its derivative, pDP_mgdf for functional complementation of a glpK-knock out, since these plasmids are relevant for recombinant 1,2-PD production.
(§2) Thus, an inducible unregulated pathway independent of the endogenous route to metabolise glycerol was established. The biomass finally obtained is equal or even higher compared to growth of a control strain (DH5alpha[…]araB) or when glucose is the substrate for growth.

[4] = system: E. coli DH5alpha araB glpK mutant; test: Growth on glucose or glycerol as carbon source, glpK mutant; type: cell-based; details: no plasmid, carbon source 10 g/l, 37° C., oxic, 5 days
Source text: as §1, §2

[5] = system: E. coli DH5alpha araB glpK mutant with plasmid pDP_gdf; test: Growth on glucose or glycerol as carbon source, glpK mutant with plasmid pDP_gdf; type: cell-based; details: carbon source 10 g/l, 37° C., oxic, 5 days
Source text: as §1, §2

[6] = system: E. coli DH5alpha araB glpK mutant with plasmid pDP_mgdf; test: Growth on glucose or glycerol as carbon source, glpK mutant with plasmid pDP_mgdf; type: cell-based; details: carbon source 10 g/l, 37° C., oxic, 5 days
Source text: as §1, §2

E. coli MG1655 wild-type = test: Toxicity of methylglyoxal, growth inhibition of wild-type; type: cell-based; details: minimal medium with pure glycerol 10 g/l; microtiterplates, 37° C.; OD580 48.5 h after inoculation
Experimental: (§3) E. coli MG1655 wild-type or mutants inactivated in the genes gloA and gloB, respectively, were cultivated in minimal-medium with pure-glycerol (10 g/l) as source for carbon and energy containing different amounts of methylglyoxal. Tests for methylglyoxal indicated a period of at least 72 h of chemical stability. E. coli was cultivated in microtiterplates without agitation at 37° C. under a humid atmosphere. Growth was determined at OD580 48.5 h after inoculation (FIG. 1; black bars, E. coli MG1655 wild-type; grey bars, E. coli MG1655 gloA-mutant; hatched bars, E. coli MG1655 gloB-mutant).

[7] = system: E. coli MG1655 gloA-mutant; test: Toxicity of methylglyoxal, growth inhibition of gloA-mutant; type: cell-based; details: gloA (glyoxylase I) mutant, especially sensitive; OD580 48.5 h after inoculation
Experimental: as §3

[8] = system: E. coli MG1655 gloB-mutant; test: Toxicity of methylglyoxal, growth inhibition of gloB-mutant; type: cell-based; details: OD580 48.5 h after inoculation
Experimental: as §3

[9] = Chemical stability of methylglyoxal; type: physicochemical
Experimental: as §3

SMILES | Biomass production [OD580] Ø (E. coli MG1655 [1]; substrate 0.63 g/l) [OD580] | Biomass production [OD580] Ø (E. coli MG1655 [1]; substrate 1.25 g/l) [OD580] | Biomass production [OD580] Ø (E. coli MG1655 [1]; substrate 2.5 g/l) [OD580] | Biomass production [OD580] Ø (E. coli MG1655 [1]; substrate 10 g/l) [OD580] | Biomass production [OD580] Ø (E. coli MG1655 [1]; substrate 20 g/l) [OD580] | Biomass production [OD580] Ø (E. coli MG1655 [1]; substrate 40 g/l) [OD580] | Biomass production [OD580] Ø (E. coli MG1655 [2]; culture broth devoid of nitrogen) [OD580] | Biomass production [OD580] Ø (E. coli MG1655 [2]; culture broth devoid of none) [OD580] | Biomass production [OD580] Ø (E. coli MG1655 [2]; culture broth devoid of phosphate) [OD580] | Biomass production [OD580] Ø (E. coli MG1655 [2]; culture broth devoid of sulfate) [OD580] | Biomass production [OD580] Ø (E. coli MG1655 [2]; culture broth devoid of trace-elements) [OD580] | Biomass production OD580 [3] [OD580] | Biomass production OD580 [4] [OD580] | Biomass production OD580 [5] [OD580] | Biomass production OD580 [6] [OD580] | extracellular concentration of methylglyoxal at which inhibition of growth was observed (E. coli MG1655 wild-type) [mM] | sensitivity of growth to methylglyoxal compared with wild-type [7] | sensitivity of growth to methylglyoxal compared with wild-type [8] | period of chemical stability [9]
OCC(O)CO [pure glycerol, glycerol] | 0.5 | 0.6 | 1.2 | 5.0 | 6.0 | 5.7 | 1.1 | 2.5 | 1.2 | 1.0 | 2.4 | 2.0 | 0.1 | 4.5 | 5.5 |  |  |  | 
CC(=O)C=O [methylglyoxal] |  |  |  |  |  |  |  |  |  |  |  |  |  |  |  | ≥ 2.5 | significantly more sensitive | significantly more sensitive | at least 72 h

— patent US20110124069A1, “PRODUCTION METHOD” (priority 2008, published 2011)
